Several values for one entry are separate records, joined by “and”; a condition that tells them apart may be missing. Identical values can stand only once. Entries after “also recorded” stand apart in the source; their conditions may differ.
Tests used:
PTPσ = molecular target: T1, PTPσ (Mus musculus, UniProt B0V2N1); assay: PTPσ enzymatic assay (modified Malachite Green / Tyrosine Phosphatase Assay Kit); type: biochemical; conditions: for PTPσ inhibitory activity (in words): direct PTPσ enzymatic assay; for Supplementary Figure 5b: PTPσ enzymatic assay signal: replicates
T1 sequence (B0V2N1 1326-1907): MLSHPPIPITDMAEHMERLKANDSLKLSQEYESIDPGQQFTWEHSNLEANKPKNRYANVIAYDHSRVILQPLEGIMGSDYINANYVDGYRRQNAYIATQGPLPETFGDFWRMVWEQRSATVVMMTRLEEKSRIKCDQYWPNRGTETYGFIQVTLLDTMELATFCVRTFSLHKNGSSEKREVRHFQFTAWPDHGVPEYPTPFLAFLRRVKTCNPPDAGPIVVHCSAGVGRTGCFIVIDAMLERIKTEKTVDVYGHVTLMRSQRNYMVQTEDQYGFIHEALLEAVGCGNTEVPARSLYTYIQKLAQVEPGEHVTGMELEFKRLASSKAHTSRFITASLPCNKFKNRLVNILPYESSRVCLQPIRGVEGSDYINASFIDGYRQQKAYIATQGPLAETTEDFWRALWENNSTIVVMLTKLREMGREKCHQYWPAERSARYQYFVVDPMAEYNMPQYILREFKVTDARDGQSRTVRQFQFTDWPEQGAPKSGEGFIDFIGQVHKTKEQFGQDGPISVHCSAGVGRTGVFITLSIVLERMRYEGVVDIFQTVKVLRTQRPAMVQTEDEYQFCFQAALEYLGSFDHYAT
Protocol: The two intracellular catalytic domains (D1 and D2) of Ptprs were cloned into a pET28a vector, overexpressed in Escherichia coli BL21 and purified. Enzymatic activity of PTPσ was assayed using a modified version of the Malachite Green Assay[66] and the Tyrosine Phosphatase Assay Kit (Promega Corporation). Unless stated otherwise, standard assays were carried out using 50 nM PTPσ protein in 1× Buffer (10 mM Tris, 5 mM MgCl2, 10 mM NaCl, 0.02% Tween) and Tyr Phosphopeptide as substrate (200 μM for Fig. 1b, c, 50–1200 μM in Fig. 1c). Purified catalytic domain 1 and domain 2 of PTPσ were pre-incubated with test compounds 3071, 5205, 5075, or control for 15 min in a 96-well plate before the addition of Tyr Phosphopeptide (DADE(pY)LIPQQG). For IC50 determination, rates normalized relative to uninhibited controls (dimethyl sulfoxide (DMSO)) were plotted against compound concentration and fitted using a four-parameter nonlinear regression curve fit ((y = [(A − D) (1 + {xC − 1}B) − 1] + D) (Prism 6.0, Graphpad Software). For mechanism studies and determination of the enyzme’s Km and Vmax, data were analyzed using a nonlinear regression fit according to the classical Michaelis–Menten kinetics model, Y = Vmax*X/(Km + X) (Prism 6.0, Graphpad Software).

C57BL/6 mice = assay: Survival study after 750 cGy TBI; type: in vivo, mouse
Protocol: For survival studies, 10-week-old female C57BL/6 mice were irradiated with 750 cGy TBI, which is lethal for ~50% of C57BL/6 mice by day + 30 (LD50/30), using a Shepherd Cesium-137 irradiator. Twenty four hours post irradiation, mice were administered daily subcutaneous injections of 5 mg/kg DJ001 or DJ009, or vehicle in a volume of 100 μL for 10 days. DJ001 or DJ009 injections were prepared in PBS, 0.5% Tween 80, and 10% DMSO. Corresponding vehicle injections contained PBS, 10% DMSO, and 0.5% Tween 80. PB complete blood counts were measured using a Hemavet 950 instrument (Drew Scientific) at day + 10 post irradiation. For hematopoietic analysis, BM cells were collected at day + 10 post irradiation. To study whether DJ001 increased survival rates through activation of RAC signaling, the RAC inhibitor, EHT1864 (Selleckchem), was dissolved in PBS and administered intraperitoneally, 40 mg/kg every other day, to 750 cGy-irradiated mice until day + 10.

[1] = 750 cGy TBI, DJ001 daily day +1 to +10, through day +40

`O=C(/C=C\Nc1cccc([N+](=O)[O-])c1)c1ccccc1` [DJ001, (Z)-3-((3-nitrophenyl)amino)-1-phenylprop-2-en-1-one] was tested, and the “PTPσ inhibitory activity (in words)” value (PTPσ) was “confirmed the inhibitory effect”, the “PTPσ inhibitory activity (in words)” value (PTPσ; listed as 5483071) was “strong inhibitory activity” and the percent survival (C57BL/6 mice; [1]) was 93%. For the same compound, the “survival, mice alive of total (Fig. 2f)” value (C57BL/6 mice; [1]) was 27/29 and 27 of 29, the “survival, mice alive of total (Fig. 3f)” value (C57BL/6 mice; 750 cGy, 10-day treatment, EHT1864 40 mg/kg i.p. every other day) was 11/15 and the “Figure 3f: survival event per mouse (1 = event, 0 = censored)” value (from here on “Figure 3f: survival event per mouse”) (C57BL/6 mice; Days Post-irradiation 14) was 1. For the same compound, the “Figure 3f: survival event per mouse” value (C57BL/6 mice; Days Post-irradiation 17) was 1, the “Figure 3f: survival event per mouse” value (C57BL/6 mice; Days Post-irradiation 18) was 1 and the “survival source data, event code per mouse” value (C57BL/6 mice; Days Post-irradiation 18) was 1. For the same compound, the “Figure 3f: survival event per mouse” value (C57BL/6 mice; Days Post-irradiation 20) was 1, the “Figure 3f: survival event per mouse” value (C57BL/6 mice; Days Post-irradiation 30) was 0 and the “survival source data, event code per mouse” value (C57BL/6 mice; Days Post-irradiation 40) was 0.

In the case of `O=C(/C=C\Nc1cc(F)cc(F)c1)c1ccccc1` [DJ009, (Z)-3-((3,5-difluorophenyl)amino)-1-phenylprop-2-en-1-one], the “PTPσ inhibitory activity (in words)” value (PTPσ) was “strongly inhibited PTPσ activity; also recorded: strong PTPσ inhibitory”, the “Supplementary Figure 5b: PTPσ enzymatic assay signal” value (from here on “Supplementary Figure 5b”) (PTPσ; inhibitor 0.0122 uM) was 0.21 and 0.203 (2×) and the “Supplementary Figure 5b” value (PTPσ; inhibitor 0.049 uM) was 0.201 and 0.209 and 0.211. The “Supplementary Figure 5b” value (PTPσ; inhibitor 0.09 uM) was 0.199 and 0.194 and 0.195, the “Supplementary Figure 5b” value (PTPσ; inhibitor 0.19 uM) was 0.178 and 0.174 and 0.176 and the “Supplementary Figure 5b” value (PTPσ; inhibitor 0.39 uM) was 0.161 and 0.165 and 0.164. The “Supplementary Figure 5b” value (PTPσ; inhibitor 0.78 uM) was 0.162 and 0.166 and 0.165, the “Supplementary Figure 5b” value (PTPσ; inhibitor 1.56 uM) was 0.16 and 0.163 and 0.158 and the “Supplementary Figure 5b” value (PTPσ; inhibitor 3.125 uM) was 0.154 and 0.159 and 0.16. The “Supplementary Figure 5b” value (PTPσ; inhibitor 6.25 uM) was 0.157 and 0.162 and 0.156, the “survival of irradiated C57BL/6 mice (in words)” value (C57BL/6 mice; 750 cGy TBI, 5 mg/kg daily for 10 days) was “significantly increased survival” and the “survival, mice alive of total (Supplementary Fig. 5f)” value (C57BL/6 mice; 750 cGy, 5 mg/kg DJ009 daily for 10 d) was 24/24. For the same compound, the “Supplementary Figure 5f: survival event per mouse (1 = event, 0 = censored)” value (C57BL/6 mice; Days post-radiation 30) was 0.

Source: publication PMC6694155, “PTPσ inhibitors promote hematopoietic stem cell regeneration” (Nature Communications, 2019)
